{"source": "paper PMC11091072", "about": "“Targeting bacterial nickel transport with aspergillomarasmine A suppresses virulence-associated Ni-dependent enzymes” (Nature Communications, 2024)", "key": {"[1]": {"test_system": "K. pneumoniae urease activity (whole cell)", "test": "Checkerboard analysis of Zn-AMA and AHA on urease activity", "type": "cell-based, Klebsiella pneumoniae", "conditions": "Zn-AMA 0 μM", "method": "To guide our exploration of the mode of action of Zn-AMA, we investigated whether a chemical-chemical interaction occurs with the urease inhibitor AHA. […] We subsequently performed inductively coupled plasma mass spectrometry (ICP-MS) analyses to evaluate the intracellular Ni^2+ and Zn^2+ content of K. pneumoniae.\nK. pneumoniae whole-cell urease activity was determined with artificial urine containing 0.2% (w/v) casamino acids and 0.01% (w/v) phenol red in 96-well plates. For the growth of S. aureus in artificial urine, the medium was supplemented with 10% LB. After 20–24 hours of growth, bacteria were removed using 0.45 μm filter plates, and the final A550 of the medium was measured using a plate reader.\nFIG S7 Evaluation of Zn-AMA as a direct inhibitor of urease. A) Checkerboard analysis of Zn-AMA and AHA on urease activity of K.\npneumoniae after growth for 24 h at 37 °C artificial urine. pH is represented by the color scale determined with phenol red. […]"}, "[2]": {"test_system": "K. pneumoniae urease activity (whole cell)", "test": "microbe, parasite or virus in culture", "type": "cell-based, Klebsiella pneumoniae ATCC 33495", "conditions": "for EC50: Klebsiella pneumoniae, read-out: EC50, half-maximal effective concentration required to suppress urease-dependent pH change"}, "[3]": {"test_system": "HEK293 cells", "test": "HEK293 cytotoxicity assay (Cell Titer Glo 2.0)"}, "[4]": {"target": "NikA (Klebsiella pneumoniae, UniProt A6TFA3)", "sequence (A6TFA3 entry or part of it)": "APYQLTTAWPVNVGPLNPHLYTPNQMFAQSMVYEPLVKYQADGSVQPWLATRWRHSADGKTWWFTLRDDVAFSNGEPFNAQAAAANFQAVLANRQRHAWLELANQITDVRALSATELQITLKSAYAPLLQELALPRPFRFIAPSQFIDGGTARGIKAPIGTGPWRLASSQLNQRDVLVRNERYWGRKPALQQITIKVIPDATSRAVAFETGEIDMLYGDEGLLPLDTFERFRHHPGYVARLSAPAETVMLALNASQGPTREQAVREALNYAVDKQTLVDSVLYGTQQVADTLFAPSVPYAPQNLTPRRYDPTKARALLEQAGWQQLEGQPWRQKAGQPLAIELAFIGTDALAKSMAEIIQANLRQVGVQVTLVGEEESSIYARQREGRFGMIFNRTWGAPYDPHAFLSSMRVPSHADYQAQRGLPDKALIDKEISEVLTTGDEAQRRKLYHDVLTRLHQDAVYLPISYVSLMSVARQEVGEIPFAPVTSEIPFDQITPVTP", "type": "binding", "conditions": "for n (stoichiometry, ITC) / ∆H / −T∆S / ∆G: 37 °C; for n (stoichiometry, ITC) / ∆H / −T∆S / -∆TS / ∆G: pH 7.5; for -∆TS: Fig S13, 37 °C; for Kd: read-out: KD for NikA (ITC), 25 mM Tris-HCl, 150 mM NaCl, 0.1% Triton X-100, pH 7.5, 37 °C; for fold improvement of affinity for NikA: relative to Zn-AMA"}, "[5]": {"conditions": "K. pneumoniae, artificial urine"}}, "note": "Several values for one entry are separate records, joined by “and”; a condition that tells them apart may be missing. Equal entries are not always repeated. Where two headings read alike, the source gives them in different places. Peptide text beside a SMILES is read from it. * marks the point of attachment. Cbz = O=C(OCc1ccccc1)*", "data": [{"smiles": "CC(=O)NO", "note": "[AHA, acetohydroxamic acid, reference compound]", "values": [{"measurement": "Urease-dependent pH change (pH)", "setting": "[1]; AHA 0.1 mM", "result": 7.94}, {"measurement": "Urease-dependent pH change (pH)", "setting": "[1]; AHA 0.2 mM", "result": 8.07}, {"measurement": "Urease-dependent pH change (pH)", "setting": "[1]; AHA 0.4 mM", "result": 7.88}, {"measurement": "Urease-dependent pH change (pH)", "setting": "[1]; AHA 0.5 mM", "result": 8.25}, {"measurement": "Urease-dependent pH change (pH)", "setting": "[1]; AHA 0.8 mM", "result": 7.28}, {"measurement": "Urease-dependent pH change (pH)", "setting": "[1]; AHA 1.6 mM", "result": 6.77}, {"measurement": "concentration required to achieve similar urease suppression", "setting": "[2]; K. pneumoniae, artificial urine, 24 h", "result": 12.8, "unit": "mM"}]}, {"smiles": "CC(C)C[C@@H](C=O)NC(=O)[C@H](CC(C)C)NC(=O)[C@H](CC(C)C)NC(=O)OCc1ccccc1", "note": "[MG132, reference compound] (Cbz-Leu-Leu-Leu-aldehyde)", "values": [{"measurement": "IC50", "setting": "[3]; Homo sapiens, HEK293, 48 h, read-out: IC50 (HEK293 viability)", "result": 0.144, "unit": "µg/mL"}, {"measurement": "HEK 293T cytotoxicity assay raw signal", "setting": "[3]; MG-132 0.06 μg/mL", "result": "553546 and 645337 and 439066"}, {"measurement": "HEK 293T cytotoxicity assay raw signal", "setting": "[3]; MG-132 0.12 μg/mL", "result": "287630 and 290638 and 251825"}, {"measurement": "HEK 293T cytotoxicity assay raw signal", "setting": "[3]; MG-132 0.24 μg/mL", "result": "228174 and 211174 and 145724"}, {"measurement": "HEK 293T cytotoxicity assay raw signal", "setting": "[3]; MG-132 0.49 μg/mL", "result": "127375 and 103739 and 100640"}, {"measurement": "HEK 293T cytotoxicity assay raw signal", "setting": "[3]; MG-132 0.98 μg/mL", "result": "76026 and 78297 and 72041"}, {"measurement": "HEK 293T cytotoxicity assay raw signal", "setting": "[3]; MG-132 1.95 μg/mL", "result": "47803 and 50917 and 47518"}, {"measurement": "HEK 293T cytotoxicity assay raw signal", "setting": "[3]; MG-132 7.81 μg/mL", "result": "52239 and 45457 and 61991"}, {"measurement": "HEK 293T cytotoxicity assay raw signal", "setting": "[3]; MG-132 15.63 μg/mL", "result": "62587 and 49620 and 71962"}, {"measurement": "HEK 293T cytotoxicity assay raw signal", "setting": "[3]; MG-132 31.25 μg/mL", "result": "50870 and 51533 and 85262"}]}, {"smiles": "NC(=O)C[C@H](NC[C@H](NC[C@H](N)C(=O)O)C(=O)O)C(=O)O.[Zn+2]", "note": "[Zn-AMA(Asn)]", "values": [{"measurement": "n (stoichiometry, ITC)", "setting": "[4]", "result": 1.14}, {"measurement": "∆H", "setting": "[4]", "result": -13.1, "unit": "kcal/mol"}, {"measurement": "−T∆S", "setting": "[4]", "result": 4.7, "unit": "kcal/mol"}, {"measurement": "-∆TS", "setting": "[4]", "result": 4.73}, {"measurement": "Kd", "setting": "[4]", "result": "1.3 ± 0.1", "unit": "µM"}, {"measurement": "fold improvement of affinity for NikA", "setting": "[4]", "result": 7, "unit": "fold"}, {"measurement": "Urease-dependent pH change (pH)", "setting": "[2]", "result": "7.81 and 7.93 and 7.88 and 7.95"}, {"measurement": "EC50", "setting": "[2]; [5]", "result": "24 ± 6", "unit": "µM"}, {"measurement": "Urease-dependent pH change (pH)", "setting": "[2]; Zn-AMA(Asn) 0.19 μM", "result": "7.83 and 7.99"}, {"measurement": "Urease-dependent pH change (pH)", "setting": "[2]; Zn-AMA(Asn) 0.39 μM", "result": "7.94 and 7.95"}, {"measurement": "Urease-dependent pH change (pH)", "setting": "[2]; Zn-AMA(Asn) 3.12 μM", "result": "7.74 and 7.82"}, {"measurement": "Urease-dependent pH change (pH)", "setting": "[2]; Zn-AMA(Asn) 6.25 μM", "result": "7.67 and 7.74"}, {"measurement": "Urease-dependent pH change (pH)", "setting": "[2]; Zn-AMA(Asn) 12.5 μM", "result": "7.43 and 7.67"}, {"measurement": "Urease-dependent pH change (pH)", "setting": "[2]; Zn-AMA(Asn) 25 μM", "result": "7.11 and 7.36"}, {"measurement": "Urease-dependent pH change (pH)", "setting": "[2]; Zn-AMA(Asn) 50 μM", "result": "6.62 and 7.12"}, {"measurement": "Urease-dependent pH change (pH)", "setting": "[2]; Zn-AMA(Asn) 100 μM", "result": "6.33 and 6.91"}, {"measurement": "Urease-dependent pH change (pH)", "setting": "[2]; Zn-AMA(Asn) 200 μM", "result": "6.43 and 6.83"}]}, {"smiles": "N[C@@H](CN[C@@H](CN[C@@H](Cc1cnc[nH]1)C(=O)O)C(=O)O)C(=O)O.[Zn+2]", "note": "[Zn-AMA(His)]", "values": [{"measurement": "n (stoichiometry, ITC)", "setting": "[4]", "result": 0.76}, {"measurement": "∆H", "setting": "[4]", "result": -13.1, "unit": "kcal/mol"}, {"measurement": "−T∆S", "setting": "[4]", "result": 4.5, "unit": "kcal/mol"}, {"measurement": "-∆TS", "setting": "[4]", "result": 4.48}, {"measurement": "Kd", "setting": "[4]", "result": "0.8 ± 0.1", "unit": "µM"}, {"measurement": "fold improvement of affinity for NikA", "setting": "[4]", "result": 7, "unit": "fold"}, {"measurement": "Urease-dependent pH change (pH)", "setting": "[2]", "result": "7.86 and 7.89 and 7.93 and 7.91"}, {"measurement": "EC50", "setting": "[2]; [5]", "result": "> 200", "unit": "µM"}, {"measurement": "Urease-dependent pH change (pH)", "setting": "[2]; Zn-AMA(His) 0.19 μM", "result": "7.92 and 7.89"}, {"measurement": "Urease-dependent pH change (pH)", "setting": "[2]; Zn-AMA(His) 0.39 μM", "result": "7.95 and 7.91"}, {"measurement": "Urease-dependent pH change (pH)", "setting": "[2]; Zn-AMA(His) 3.12 μM", "result": "7.87 and 7.86"}, {"measurement": "Urease-dependent pH change (pH)", "setting": "[2]; Zn-AMA(His) 6.25 μM", "result": "7.78 and 7.90"}, {"measurement": "Urease-dependent pH change (pH)", "setting": "[2]; Zn-AMA(His) 12.5 μM", "result": "7.75 and 7.83"}, {"measurement": "Urease-dependent pH change (pH)", "setting": "[2]; Zn-AMA(His) 25 μM", "result": "7.73 and 7.87"}, {"measurement": "Urease-dependent pH change (pH)", "setting": "[2]; Zn-AMA(His) 50 μM", "result": "7.68 and 7.86"}, {"measurement": "Urease-dependent pH change (pH)", "setting": "[2]; Zn-AMA(His) 100 μM", "result": "7.57 and 7.81"}, {"measurement": "Urease-dependent pH change (pH)", "setting": "[2]; Zn-AMA(His) 200 μM", "result": "7.66 and 7.82"}]}, {"smiles": "N[C@@H](CN[C@@H](CC(=O)O)C(=O)O)C(=O)O.[Zn+2]", "note": "[Zn-Toxin A]", "values": [{"measurement": "n (stoichiometry, ITC)", "setting": "[4]", "result": 1.15}, {"measurement": "∆G", "setting": "[4]", "result": -7.4, "unit": "kcal/mol"}, {"measurement": "∆H", "setting": "[4]", "result": -9.6, "unit": "kcal/mol"}, {"measurement": "−T∆S", "setting": "[4]", "result": 2.2, "unit": "kcal/mol"}, {"measurement": "∆G", "setting": "[4]; listed as Zn-toxin A", "result": -7.41, "unit": "kcal/mol"}, {"measurement": "∆H", "setting": "[4]; listed as Zn-toxin A", "result": -9.61, "unit": "kcal/mol"}, {"measurement": "-∆TS", "setting": "[4]", "result": 2.20}, {"measurement": "Kd", "setting": "[4]", "result": "6 ± 0.8", "unit": "µM"}, {"measurement": "Urease-dependent pH change (pH)", "setting": "[2]; Zn-Toxin A 0.19 μM", "result": "7.83 and 7.80"}, {"measurement": "Urease-dependent pH change (pH)", "setting": "[2]; Zn-Toxin A 0.39 μM", "result": "7.83 and 7.88"}, {"measurement": "Urease-dependent pH change (pH)", "setting": "[2]; Zn-Toxin A 0.78 μM", "result": "7.88 and 7.78"}, {"measurement": "Urease-dependent pH change (pH)", "setting": "[2]; Zn-Toxin A 1.56 μM", "result": "7.66 and 7.81"}, {"measurement": "Urease-dependent pH change (pH)", "setting": "[2]; Zn-Toxin A 3.12 μM", "result": "7.79 and 7.72"}, {"measurement": "Urease-dependent pH change (pH)", "setting": "[2]; Zn-Toxin A 6.25 μM", "result": "7.83 and 7.77"}, {"measurement": "Urease-dependent pH change (pH)", "setting": "[2]; Zn-Toxin A 12.5 μM", "result": "7.84 and 7.79"}, {"measurement": "Urease-dependent pH change (pH)", "setting": "[2]; Zn-Toxin A 25 μM", "result": "7.79 and 7.82"}, {"measurement": "Urease-dependent pH change (pH)", "setting": "[2]; Zn-Toxin A 50 μM", "result": "7.77 and 7.81"}, {"measurement": "Urease-dependent pH change (pH)", "setting": "[2]; Zn-Toxin A 100 μM", "result": "7.79 and 7.77"}, {"measurement": "Urease-dependent pH change (pH)", "setting": "[2]; Zn-Toxin A 200 μM", "result": "7.66 and 7.69"}]}]}
